From patent US10174312B2 (priority 2014, dated 2019)
Read-outs that look alike come from different tables or passages of the source. Starred links: 1 amine or outer side, 2 acyl side, 3 side chain; linkers in the order of their positions; H or OH if unused. Positions of bridges follow the written chain, without caps; N, C: chain ends. Non-standard residues stand in square brackets, D forms with d. Residues, ends and D or L forms follow the SMILES beside them. Chains are numbered I, II in the order given. Actinocin(9to1) = Cc1c2oc3c(C)ccc(C(=O)[*:1])c3nc-2c(C(=O)[*:2])c(N)c1=O; NMeV = CN[C@H](C(=O)O)C(C)C; Sar = CNCC(=O)O

Columns and labels:
[1] = test system: S. pombe genome-wide heterozygous deletion strain; test: Chemical-genetic profile by DNA chip array (S. pombe compendium, DI-HI / ecDT screening); type: cell-based, Schizosaccharomyces pombe
Source text: To make the genetic compendium of S. pombe heterozygous deletion strain pool, DNA was separated from the strain by the conventional method, followed by chip-hybridization to quantify the growth of the strain (S. E. Pierce, E. L. Fung, D. F. Jaramillo, et al., Nat. Methods 3 (2006) 601-603).
Then, a short DNA barcode sequence in 20 bp long (named “TAG”) was inserted in the complementary region of the genomic DNA, followed by amplification with universal primers for the flanking sequence. The amount of the amplified TAG was judged by the growth of each strain, which was quantified by using the DNA chip (Affymetrix, USA) constructed with the complementary sequence of TAG.
The result of the quantitative DNA chip array was not modified by background correction, normalization, or perfect match (PM) and the mean value was used as raw intensity (Iraw). The parameter for preprocessing the raw intensity was calculated by DNA chip array according to the conventional method informed to those in the art. To calculate the minimum value of the comparative fitness by saturated intensity, modification was performed according to the below mathematical formula 3. The normalized constant was applied to each analysis based on the modified raw intensity. For the modification, chip array was repeated 5 times with the glycerol stock deletion strain pool and the mean value was obtained. The normalized final intensity was log 2-transformed for after analysis. Icorrected=Iraw×exp(−Irawα) [Mathematical Formula 3]
In the mathematical formula 3, ‘Icorrected’ indicates the modified intensity; ‘Iraw’ indicates the raw intensity; and ‘α’ indicates the variable of modification function calculated with UPTAG and DNATAG which are 0.0003412759 and 0.0002767581 respectively.
Error model was calculated according to the conventional method in order to calculate the fitness score of the drug treated S. pombe heterozygous deletion strain.
The compendium of the drug competitive growth experiment was used as the reference set. […] N and the line of drugs of 1 . . . j . . . M. The average and variable of the reference set of each strain were calculated by the below mathematical formula 4.
Z-scores and p-values of the 4400 heterozygous deletion strains were obtained with 47 drugs. The amount of each strain was represented by UPTAG and DNTAG inserted in the upstream and the downstream of the gene that had been eliminated from each strain. To investigate the significance of p-value presenting the detect of the growth in the drug treated strain, the expected intensity of UPTAG and DNTAG in the strain was calculated by the mathematical formula 5. From the mean value thereof, Z-score presenting the statistical distance was obtained. The obtained Z-score was applied to error function or standard normal distribution according to the mathematical formula 6, and the growth detect of each strain was judged by p-value in the range of 0˜1.
The growth defect by the presence or absence of each drug was investigated by the method illustrated in the schematic diagram of FIG. 5 to judge whether the heterozygous deletion gene was haplo-insufficient (HI) or haplo-sufficient (HS).

[2] = test system: pool of the S. pombe heterozygous deletion strain; type: cell-based, Schizosaccharomyces pombe; conditions: for growth inhibition effect on the strain (sampling errors confirmed, FIG. 3): 20 generation subculture, expected vs sampled generation
Experimental: In the course of 10 generation sub-culture and 20 generation sub-culture, OD600 was measured to confirm the doubling time. Then, pool fitness by doubling time (PFDT) was calculated by the below mathematical formula 2. […] PFDT=doubling time of the pool not-treated with the drug/doubling time of the pool treated with the drug [Mathematical Formula 2]

[3] = test system: S. cerevisiae heterozygous deletion strain library; conditions: cited from earlier work
[4] = each drug at its Dose(M) of Table 2, 25° C.
[5] = each drug at its Dose(M) of Table 2, 25° C., PFDT = doubling time untreated pool / treated pool
[6] = second, lower dose 1.50E−08 M (Drug ID 67.2, 71.2)

For Clc1ccccc1C(c1ccccc1)(c1ccccc1)n1ccnc1 [Clotrimazole], the “−log (p) (Spo)” value ([1]; gene erg11, dose 0.1 μM) was −13.15.

For C=C1[C@@H](C)[C@H]2[C@H](Cc3ccccc3)NC(=O)[C@]23OC(=O)/C=C/[C@H](O)CCC[C@@H](C)C/C=C/[C@H]3[C@@H]1O [Cytochalasin B], the “PF2DT: PFDT of the sample obtained from 20 generation subculture” value (“PF2DT: PFDT of the sample obtained” below) [2, 4] was 0.785 and the “PF1DT: PFDT of the sample obtained from 10 generation subculture” value (shortened to “PF1DT: PFDT of the sample obtained”) [2, 5] was 0.954.

For Tunicamycin, the “PF2DT: PFDT of the sample obtained” value [2, 4] was 1.027, the “PF1DT: PFDT of the sample obtained” value [2, 5] was 0.935 and the “PF1DT: PFDT of the sample obtained” value [2, 6] was 0.954. The “PF2DT: PFDT of the sample obtained” value [2, 6] was 1.007, the “−log (p) (Spo)” value ([1]; gene gpt2 heterozygous deletion, dose 0.03125 μM) was −4.976 and the “−log (p) (Sce)” value ([3]; gene ALG7, dose 0.015 μM) was −5.227. For the same compound, the “−log (p) (Sce)” value ([3]; gene ALG7, dose 150 ng/mL) was −24.

For COc1cccc2c1C(=O)c1c(O)c3c(c(O)c1C2=O)C[C@@](O)(C(=O)CO)C[C@@H]3O[C@H]1C[C@H](N)[C@H](O)[C@H](C)O1 [Doxorubicin], the “−log (p) (Spo)” value ([1]; gene rpa2, dose 24 μM) was −15.09, the “−log (p) (Spo)” value ([1]; gene vma1, dose 24 μM) was −28.26 and the “−log (p) (Spo)” value ([1]; gene vma7, dose 24 μM) was −6.287. For the same compound, the “−log (p) (Sce)” value ([3]; gene RPA135, dose 62.5) was −6.279, the “−log (p) (Sce)” value ([3]; gene TFP1, dose 62.5) was −8.374 and the “−log (p) (Sce)” value ([3]; gene VMA7, dose 62.5) was −28.85.

In the case of CN(Cc1cnc2nc(N)nc(N)c2n1)c1ccc(C(=O)N[C@@H](CCC(=O)O)C(=O)O)cc1 [Methotrexate], the “−log (p) (Spo)” value ([1]; gene ssr2, dose 500 μM) is listed as −4.28 and the “−log (p) (Sce)” value ([3]; gene RSC8, dose 250) is listed as −4.275.

For Cn1c(=O)c2[nH]cnc2n(C)c1=O [Theophylline anhydrous], the “PF2DT: PFDT of the sample obtained” value [2, 4] was 0.924 and the “PF1DT: PFDT of the sample obtained” value [2, 5] was 0.887.

In the case of CN(C/C=C/C#CC(C)(C)C)Cc1cccc2ccccc12 [Terbinafine], the “−log (p) (Spo)” value ([1]; S. pombe gene not printed (ortholog of RRP1), dose 0.03 μM) is reported as −6.1, the “−log (p) (Spo)” value ([1]; gene erg1, dose 0.015 μM) is reported as −24.83 and the “−log (p) (Spo)” value ([1]; gene erg1, dose 0.03 μM) is reported as −49.77. For the same compound, the “−log (p) (Sce)” value ([3]; gene ERG1, dose 2.5 ug/ml) was −80.59 and the “−log (p) (Sce)” value ([3]; gene RRP1, dose 7.2 μM) was −4.515.

For CO[C@@]12[C@H](COC(N)=O)C3=C(C(=O)C(C)=C(N)C3=O)N1C[C@@H]1N[C@@H]12 [Mitomycin C], the “PF2DT: PFDT of the sample obtained” value [2, 4] was 0.756, the “PF1DT: PFDT of the sample obtained” value [2, 5] was 0.840 and the “−log (p) (Spo)” value ([1]; gene cdc10, dose 80 μM) was −6.16. For the same compound, the “−log (p) (Spo)” value ([1]; gene snf21, dose 80 μM) was −4.022, the “−log (p) (Sce)” value ([3]; gene SPC105, dose 1000) was −14.52 and the “−log (p) (Sce)” value ([3]; gene STH1, dose 1000) was −5.49. For the same compound, the “−log (p) (Sce)” value ([3]; gene SWI6, dose 1000) was −5.228.

With Cc1c2oc3c(C)ccc(C(=O)N[C@@H]4C(=O)N[C@H](C(C)C)C(=O)N5CCC[C@H]5C(=O)N(C)CC(=O)N(C)[C@@H](C(C)C)C(=O)O[C@@H]4C)c3nc-2c(C(=O)N[C@@H]2C(=O)N[C@H](C(C)C)C(=O)N3CCC[C@H]3C(=O)N(C)CC(=O)N(C)[C@@H](C(C)C)C(=O)O[C@@H]2C)c(N)c1=O [Actinomycin D] (I: T[dV]P[Sar][NMeV] / II: T[dV]P[Sar][NMeV]; ester I:1-I:C, II:1-II:C; linker I:N-II:N via Actinocin(9to1)) the “growth inhibition effect on the strain (sampling errors confirmed, FIG. 3)” value [2] was “growth inhibition effect”, the “PF2DT: PFDT of the sample obtained” value [2, 4] was 0.709 and the “PF1DT: PFDT of the sample obtained” value [2, 5] was 0.650.

In the case of CC[C@H]1OC(=O)[C@H](C)[C@@H](O[C@H]2C[C@@](C)(OC)[C@@H](O)[C@H](C)O2)[C@H](C)[C@@H](O[C@@H]2O[C@H](C)C[C@H](N(C)C)[C@H]2O)[C@](C)(O)C[C@@H](C)C(=O)[C@H](C)[C@@H](O)[C@]1(C)O [Erythromycin], the “−log (p) (Spo)” value ([1]; gene SPAC688.09, dose 250 μM) is given as −42.17 and the “−log (p) (Sce)” value ([3]; gene RIM2, dose 2.5 mg/ml) is given as −4.63.

For CCCCOc1ccc(C(=O)CCN2CCCCC2)cc1 [Dyclonine], the “growth inhibition effect on the strain (sampling errors confirmed, FIG. 3)” value [2] was “growth inhibition effect”, the “−log (p) (Spo)” value ([1]; gene SPAC22F8.08, dose 68 μM) was −12.19 and the “−log (p) (Spo)” value ([1]; gene SPCC1450.10c, dose 68 μM) was −6.928. The “−log (p) (Spo)” value ([1]; gene rpn12, dose 68 μM) was −40.98, the “−log (p) (Sce)” value ([3]; gene NAR1, dose 500) was −4.84 and the “−log (p) (Sce)” value ([3]; gene RPN12, dose 500) was −4.338. The “−log (p) (Sce)” value ([3]; gene SEC24, dose 500) was −6.632.

For C[C@H]1CCC/C=C/[C@@H]2C[C@H](O)C[C@H]2[C@H](O)/C=C/C(=O)O1 [Brefeldin A], the “PF2DT: PFDT of the sample obtained” value [2, 4] was 0.986 and the “PF1DT: PFDT of the sample obtained” value [2, 5] was 0.973.

In the case of OCCN(CCO)c1nc(N2CCCCC2)c2nc(N(CCO)CCO)nc(N3CCCCC3)c2n1 [Dipyridamole], the “growth inhibition effect on the strain (sampling errors confirmed, FIG. 3)” value [2] is reported as “growth inhibition effect”.

In the case of COc1ccc([C@@H]2Sc3ccccc3N(CCN(C)C)C(=O)[C@@H]2OC(C)=O)cc1.Cl [Dilitiazem hydrochloride], the “PF2DT: PFDT of the sample obtained” value [2, 4] is reported as 0.890 and the “PF1DT: PFDT of the sample obtained” value [2, 5] is reported as 0.896.

In the case of O=C(CCCN1CCC(O)(c2ccc(Cl)cc2)CC1)c1ccc(F)cc1 [Haloperidol], the “−log (p) (Spo)” value ([1]; gene fet5, dose 88.3 μM) is given as −4.402 and the “−log (p) (Sce)” value ([3]; gene YLR243W, dose 125) is given as −7.301.
